A word on the IC50: it is the point on the concentration scale where inhibition reaches its midpoint.

Two compounds from publication PMC7023064, “Design, Synthesis, and Evaluation of Novel 2-Methoxyestradiol Derivatives as Apoptotic Inducers through an Intrinsic Apoptosis Pathway” (Biomolecules, 2020) can be followed below.

Assay [1] relates to MCF-7 cells. In words: Cell apoptosis analysis (Annexin V-APC/7-AAD double staining). The assay is classed as cell-based, human. The conditions noted are these: 72 h. The method, then: MCF-7 cells at a density of 2 × 10^5 cells/well were seeded on each well of 6-well plates and allowed to grow overnight. Then the cells were treated with compound 11/12a (5, 10, and 20 μM) for 72 h, while cells without treatment were used as control group. The treated cells were trypsinized and washed with cold PBS twice, then centrifuged at 2000 rpm for 5 min and resuspended in 500 μL annexin V binding buffer. 5 μL of Annexin V- allophycocyanin (APC) was added, and the mixture was incubated in the dark at 25 °C for 15 min. Then, 5 μL of 7-AAD was added just prior to acquisition. Apoptosis was analyzed by Annexin V-APC and 7-AAD double staining by flow cytometry (FACS Calibur Becton-Dickinson, San Jose, Califormia, USA).

In assay [2] the test system is MCF-7 cells. In words: Cell cycle assay (PI staining, flow cytometry). The assay is classed as cell-based, human. The conditions noted are these: 72 h. Here is the method:
MCF-7 cells at a density of 5 × 10^5 cells/well were seeded in 6-well plates and incubated at 37 °C in a humidified 5% CO2 incubator for 24 h. Exponentially growing cells were treated with compound 11/12a (0, 5, 10, and 20 μM) for 72 h. Then, the cells were harvested and fixed with 70% precooled ethanol at 4 °C for 12 h. Later, the cells were centrifuged and washed with cold PBS. 100 μL of RNase A was added, and then bathed in water for 30 min at 37 °C. Subsequently, cells were stained by 400 μL of propidium iodide (PI) for 30 min at 4 °C in the dark. Finally, cellular DNA was measured using a flow cytometry (FACS Calibur Becton-Dickinson, San Jose, California, USA).
A general note: Flow cytometry measures light scatter and fluorescence of single cells or particles in a stream.

The subject of assay [3] is MCF-7 cells. In words: Western blotting of apoptosis proteins. Format: cell-based, human. The conditions noted are these: 0, 5, 10, and 20 µM, 72 h, β-actin as control. The method, then: After the treatment of MCF-7 cells with compound 11/12a (0, 5, 10, and 20 μM) for 72 h, the total proteins of MCF-7 cells were extracted and their concentrations were balanced to the same level by BCA protein assay reagent (KGP902, KeyGen Biotech Co. Ltd., Nanjing, China), followed by 8 min of protein denaturation with SDS loading buffer at 100 °C. Proteins were separated by sodium dodecyl sulfate-polyacrylamide electrophoresis (SDS-PAGE) and transferred onto polyvinylidene fluoride (PVDF) membranes, which were blocked with 5 mL of 5% fat-free dry milk in 1× Tris-buffered saline (TBS) containing 0.05% Tween 20 for 2 h. Then the membranes were incubated with Apaf-1 (Abcam, no: ab234436), Bax (Abcam, no: ab32503), Bcl-2 (Abcam, no: ab692), Bcl-xL (Abcam, no: ab32370), caspase-3 (Abcam, no: ab184787), caspase-8 (Abcam, no: ab25901), caspase-9 (Abcam, no: ab219590), cytochrome c (Abcam, no: ab133504), and β-actin (Abcam, no: ab8226) antibodies at 4 °C overnight, followed by treatment with secondary horseradish-peroxidase-conjugated anti-rabbitIgG (KeyGen Biotech Co. Ltd., no: KGAA35) for 2 h. Membranes were finally scanned in a ChemiDoc MP Imaging System (Bio-Rad) after 2 min incubation in Clarity Western ECL Substrate (Bio-Rad).

The test system of assay [4] is human breast cancer MDA-MB-231 cell lines. In words: MTT cytotoxicity assay, MDA-MB-231. The conditions noted are these: mean ± SD of three experiments. Format: cell-based. Here is the method: (§1) Human breast adenocarcinoma MCF-7 cell lines, human breast cancer MDA-MB-231 cell lines, and the normal human liver L-O2 cell lines were provided by Nanjing KeyGen Biotech Co. Ltd. (Nanjing, China). MCF-7 cells were cultured in a base medium (90% RPMI-1640 and 10% FBS) at 37 °C, 5% CO2 and a saturated humidity atmosphere. MDA-MB-231 cells were cultured in a base medium (90% […] and 10% FBS) at 37 °C, 5% CO2 and a saturated humidity atmosphere. L-O2 cells were cultured in a base medium (90% DMEM and 10% FBS) at 37 °C, 5% CO2 and a saturated humidity atmosphere.
(§2) The cytotoxicity of the tested compounds was determined using the 3-(4,5-dimethyl-2-thiazolyl)-2,5-diphenyl-2-H-tetrazolium bromide (MTT) assay. Cells were seeded in 96-well plates and incubated in a 5% CO2 incubator at 37 °C. When the cells adhered, compounds at different concentrations were added to every well. After incubation for another 72 h, MTT solution (5 mg/mL) was added into each well and cells were incubated for an additional 4 h. The viable cells were stained with MTT and scanned with an electrophotometer at 570 nm. Each concentration treatment was done in triplicate wells. The half maximal inhibitory concentration (IC50) values were estimated by fitting the inhibition data to a dose-dependent curve using a logistic derivative equation.
Background: Tetrazolium dyes change colour on reduction, which living cells bring about.

For assay [5], the system named is MCF-7 and MDA-MB-231 cell lines. In words: MTT assay, summary over tested tumor cells. The conditions noted are these: for selectivity towards cancerous cell lines vs healthy cell line: MCF-7 and MDA-MB-231 vs L-O2. The assay is classed as cell-based, human. Here is the method: as §1, §2

For the compound “17 β-[6-(Uracil-3-yl)-Hexyloxy]-2-Methoxy-Estra-1,3,5(10)-Triene-3-ol [Compound 12a]”, the “total early and late apoptotic cells” value in assay [1] (5 μM) is 12.1%; in assay [1] (10 μM) it was 30.86%; in assay [1] (20 μM) it was 67.28%. Besides, the figures for the “cells at the G2 phase” value in assay [2] (5 μM), in assay [2] (10 μM) and in assay [2] (20 μM) were 7.97%, 13.93% and 22.46%, respectively. For the same compound, the “cells at the G1 phase” value in assay [2] (20 μM) is 54.41%. The “protein expressions of Apaf-1, Bax, caspase-3, caspase-8, caspase-9, and cytochrome c” value in assay [3] is listed as “increased in a dose-dependent manner”. Also, the “protein expressions of Bcl-2 and Bcl-xL” value in assay [3] is “obviously decreased”. In assay [4] (72 h), this compound gave an IC50 of 13 ± 0.38 µM. Further, the “selectivity towards cancerous cell lines vs healthy cell line” value in assay [5] is “about 6 fold”.
Consider `COc1cc2c(cc1O)CC[C@@H]1[C@@H]2CC[C@]2(C)[C@@H](OCCCCCCCCn3c(=O)ccn([C@@H]4O[C@H](CO)[C@@H](O)[C@H]4O)c3=O)CC[C@@H]12` [Compound 11, 17 β-[8-(1-β-D-Ribofuranosyluracil-3-yl)-Octyloxy]-2-Methoxy-Estra-1,3,5(10)-Triene-3-ol], for which the figures for the “total early and late apoptotic cells” value in assay [1] (5 μM), in assay [1] (10 μM) and in assay [1] (20 μM) were 13.21%, 33.24% and 67.74%, respectively. Further, the “cells at the G2 phase” value came out at 8.32% in assay [2] (5 μM), 15.48% in assay [2] (10 μM) and 24.11% in assay [2] (20 μM). Further, in assay [2] (20 μM), the “cells at the G1 phase” value is given as 42.84%. In addition, in assay [3], the “protein expressions of Apaf-1, Bax, caspase-3, caspase-8, caspase-9, and cytochrome c” value was “increased in a dose-dependent manner”. The “protein expressions of Bcl-2 and Bcl-xL” value in assay [3] is “obviously decreased”. In addition, the IC50 in assay [4] (Homo sapiens, MDA-MB-231, 72 h) is 14 ± 1.08 µM; in assay [5] (Homo sapiens, MCF-7 and MDA-MB-231, read-out: IC50, anti-proliferative activity against tested tumor cells) it was 3.89 to 16.7 µM. Further, the “selectivity towards cancerous cell lines vs healthy cell line” value in assay [5] is listed as approximately 7 fold.
